# Results taken from patent US20050165224A1, “Inhibition of penicillin resistance in s. pneumoniae” (priority 2000, published 2005).
# Assays:
# Assay in all cases: Penicillin MIC (E-test / population analysis)
# Assay type in all cases: cell-based
# [1] = tested on: S. pneumoniae 8249, intact murMN operon; details: Streptococcus pneumoniae, strain 8249 (serotype 19A, South African)
# Description: (§1) Transformation, population analysis profiles and determination of penicillin resistance level S. pneumoniae R36A and Pen6 were transformed essentially according to published procedures (8). To induce competence, synthetic CSPα was added to the medium at a concentration of 250 ng/ml. The competent cells were then incubated for 30 min at 30° C. in the presence of plasmidic DNA followed by the addition of 2 ml of C+Y medium and a 2 h incubation at 37° C. Transformants were selected on blood agar plates (TSA+3% (v/v) sheep blood) containing 1 μg/ml erythromycin. Population analysis profiles (PAPs) were determined by plating serial dilutions of early stationary phase cultures on plates of TSA containing 5% (v/v) of sheep blood (Micropure Medical Inc, White Bear Lake, Minn.), and different concentrations of Penicillin G (Sigma) (0, 0.01, 0.03, 0.06, 0.125, 0.25, 0.5, 1, 2, 4, 8, 16 ([…]). The PAPs were done with and without the presence of […] erythromycin in the medium. Plates were incubated at 37° C. in a 5% CO2-in-air atmosphere for 24 h and the number of bacteria capable of forming colonies in the presence of various penicillin concentrations was plotted against the concentration of penicillin in the agar medium. Penicillin resistance levels (minimal inhibitory concentration, MIC) were determined by the E-test following the manufacturers guidelines (AB Bidosk, Sweden).
# [2] = tested on: S. pneumoniae Ala1, intact murMN operon; details: Streptococcus pneumoniae, strain Ala1 (serotype 6B, Alaskan)
# Description: as §1
# [3] = tested on: S. pneumoniae Clev2, intact murMN operon; details: Streptococcus pneumoniae, read-out: Penicillin MIC
# Description: as §1
# [4] = tested on: S. pneumoniae Hun663, intact murMN operon; details: Streptococcus pneumoniae, read-out: Penicillin MIC
# Description: as §1
# [5] = tested on: S. pneumoniae Pen6, intact murMN operon; details: Streptococcus pneumoniae, read-out: Penicillin MIC
# Description: as §1
# [6] = tested on: S. pneumoniae R36A, intact murMN operon; details: Streptococcus pneumoniae, strain R36A (laboratory strain)
# Description: as §1
# [7] = tested on: S. pneumoniae Sp2150, intact murMN operon; details: Streptococcus pneumoniae, strain Sp2150 (serotype 9/14, French/Spanish)
# Description: as §1
# [8] = tested on: S. pneumoniae Pen6, disrupted murMN operon; details: Streptococcus pneumoniae, strain Pen6 (transformant)
# Description: (§2) Inactivation of the murMN operon. For gene disruption experiments, internal fragments of murM, from the bacterial strains R36A and Pen6, were amplified by PCR and cloned into pJDC9 (9). For amplification of the internal fragment of murM from R36A the following primers were used 5′-[…]-3′ (SEQ ID NO: 26) and 5′-[…]-3′ (SEQ ID NO: 27) giving origin to the plasmid pZOO5. Amplification of the internal fragment of murM from Pen6 was carried out using the primers 5′-[…]-3′ (SEQ ID NO:28) and 5′-[…]-3′ (SEQ ID NO: 29) giving origin to the plasmid pZOO6. For inactivation of the murMN operon in R36A and in Pen6, competent cells of R36A and Pen6 were transformed respectively with plasmids pZOO5 and pZOO6 (FIG. 1B).
# (§3) Transformation, population analysis profiles and determination of penicillin resistance level S. pneumoniae R36A and Pen6 were transformed essentially according to published procedures (8). To induce competence, synthetic CSPα was added to the medium at a concentration of 250 ng/ml. The competent cells were then incubated for 30 min at 30° C. in the presence of plasmidic DNA followed by the addition of 2 ml of C+Y medium and a 2 h incubation at 37° C. […] Penicillin resistance levels (minimal inhibitory concentration, MIC) were determined by the E-test following the manufacturers guidelines (AB Bidosk, Sweden).
# [9] = tested on: S. pneumoniae R36A, disrupted murMN operon; details: Streptococcus pneumoniae, strain R36A (laboratory strain)
# Description: as §2, §3
# [10] = tested on: S. pneumoniae Sp2150, disrupted murMN operon; details: Streptococcus pneumoniae, strain Sp2150 (serotype 9/14, French/Spanish)
# [11] = tested on: S. pneumoniae Clev2, disrupted murMN operon; details: Streptococcus pneumoniae, strain Clev2 (serotype 23F, Spanish/USA)
# [12] = tested on: S. pneumoniae Ala1, disrupted murMN operon; details: Streptococcus pneumoniae, strain Ala1 (serotype 6B, Alaskan)
# [13] = tested on: S. pneumoniae Hun663Tr4Tr5, disrupted murMN operon; details: Streptococcus pneumoniae, strain Hun663Tr4Tr5 (transformant)
smiles,measurement,setting,value
"CC1(C)S[C@@H]2[C@H](NC(=O)Cc3ccccc3)C(=O)N2[C@H]1C(=O)O [Penicillin, Penicillin G]",MIC,[1],6 mg/L
same,MIC,[2],0.12 mg/L
same,MIC,[3],1.6 mg/L
same,MIC,[4],1.6 mg/L
same,MIC,[5],6 mg/L
same,MIC,[6],0.023 mg/L
same,MIC,[7],1 mg/L
same,MIC,[8],0.032 mg/L
same,MIC,[9],0.023 mg/L
same,MIC,[10],0.032 mg/L
same,MIC,[11],0.016 mg/L
same,MIC,[12],0.064 mg/L
same,MIC,[13],0.032 mg/L
